These results are taken from patent publication US12577245B2, “Sulfonyl benzamide derivatives as Bcl-2 inhibitors” (ASCENTAGE PHARMA (SUZHOU) CO., LTD., priority 2021, dated 2026).

In the first test the target is Bcl-2 G101V (Homo sapiens, UniProt P10415, G101V). Nature of the test: Bcl-2 G101V inhibition, fluorescence polarization (Flu-BIM tracer) binding assay.
Settings: not given
`CC1(C)CCC(CN2CCN(c3ccc(C(=O)NS(=O)(=O)c4ccc(NC[C@H]5COCCO5)c([N+](=O)[O-])c4)c(Oc4cnc5[nH]ccc5c4)c3)CC2)=C(c2cc(C(=O)Nc3ccccc3)cs2)C1` [Example 17, (S)-5-(2-((4-(4-(((4-(((1,4-dioxan-2-yl)methyl)amino)-3-nitrophenyl)sulfonyl)carbamoyl)-3-((1H-pyrrolo[2,3-b]pyridin-5-yl)oxy)phenyl)piperazin-1-yl)methyl)-5,5-dimethylcyclohex-1-en-1-yl)-N-phenylthiophene-3-carboxamide] showed an IC50 of 49.5 nM.

Still in this test, the particulars now being: FP; 20 nM Bcl2, 5 nM Flu-BIM, 1 h incubation; read-out: Bcl-2 G101V (FP).
Take `Cc1sccc1C1=C(CN2CCN(c3ccc(C(=O)NS(=O)(=O)c4ccc(NCC5CCOCC5)c([N+](=O)[O-])c4)c(Oc4cnc5[nH]ccc5c4)c3)CC2)CCC(C)(C)C1` [Example 1, 2-((1H-pyrrolo[2,3-b]pyridin-5-yl)oxy)-4-(4-((4,4-dimethyl-2-(2-methylthiophen-3-yl)cyclohex-1-en-1-yl)methyl)piperazin-1-yl)-N-((3-nitro-4-(((tetrahydro-2H-pyran-4-yl)methyl)amino)phenyl)sulfonyl)benzamide]: the IC50 was found to be 32.7 nM.

For the molecule `Cc1cscc1C1=C(CN2CCN(c3ccc(C(=O)NS(=O)(=O)c4ccc(NCC5CCOCC5)c([N+](=O)[O-])c4)c(Oc4cnc5[nH]ccc5c4)c3)CC2)CCC(C)(C)C1` [Example 2, 2-((1H-pyrrolo[2,3-b]pyridin-5-yl)oxy)-4-(4-((4,4-dimethyl-2-(4-methylthiophen-3-yl)cyclohex-1-en-1-yl)methyl)piperazin-1-yl)-N-((3-nitro-4-(((tetrahydro-2H-pyran-4-yl)methyl)amino)phenyl)sulfonyl)benzamide], the IC50 worked out at 32.6 nM.

As to `CC1(C)CCC(CN2CCN(c3ccc(C(=O)NS(=O)(=O)c4ccc(NCC5CCOCC5)c([N+](=O)[O-])c4)c(Oc4cnc5[nH]ccc5c4)c3)CC2)=C(c2csc(C(F)(F)F)c2)C1` [Example 3, 2-((1H-pyrrolo[2,3-b]pyridin-5-yl)oxy)-4-(4-((4,4-dimethyl-2-(5-(trifluoromethyl)thiophen-3-yl)cyclohex-1-en-1-yl)methyl)piperazin-1-yl)-N-((3-nitro-4-(((tetrahydro-2H-pyran-4-yl)methyl)amino)phenyl)sulfonyl)benzamide], the IC50 was 45.6 nM.

With `Cc1ccc(C2=C(CN3CCN(c4ccc(C(=O)NS(=O)(=O)c5ccc(NCC6CCOCC6)c([N+](=O)[O-])c5)c(Oc5cnc6[nH]ccc6c5)c4)CC3)CCC(C)(C)C2)s1` [Example 6, 2-((1H-pyrrolo[2,3-b]pyridin-5-yl)oxy)-4-(4-((4,4-dimethyl-2-(5-methylthiophen-2-yl)cyclohex-1-en-1-yl)methyl)piperazin-1-yl)-N-((3-nitro-4-(((tetrahydro-2H-pyran-4-yl)methyl)amino)phenyl)sulfonyl)benzamide], the IC50 was 33.9 nM.

On to `CC(C)c1csc(C2=C(CN3CCN(c4ccc(C(=O)NS(=O)(=O)c5ccc(NCC6CCOCC6)c([N+](=O)[O-])c5)c(Oc5cnc6[nH]ccc6c5)c4)CC3)CCC(C)(C)C2)c1` [Example 8, 2-((1H-pyrrolo[2,3-b]pyridin-5-yl)oxy)-4-(4-((2-(4-isopropylthiophen-2-yl)-4,4-dimethylcyclohex-1-en-1-yl)methyl)piperazin-1-yl)-N-((3-nitro-4-(((tetrahydro-2H-pyran-4-yl)methyl)amino)phenyl)sulfonyl)benzamide], for which the IC50 came to 30.9 nM.

With `CC(C)c1csc(C2=C(CN3CCN(c4ccc(C(=O)NS(=O)(=O)c5ccc(NC[C@H]6COCCO6)c([N+](=O)[O-])c5)c(Oc5cnc6[nH]ccc6c5)c4)CC3)CCC(C)(C)C2)c1` [Example 10, (S)—N-((4-(((1,4-dioxan-2-yl)methyl)amino)-3-nitrophenyl)sulfonyl)-2-((1H-pyrrolo[2,3-b]pyridin-5-yl)oxy)-4-(4-((2-(4-isopropylthiophen-2-yl)-4,4-dimethylcyclohex-1-en-1-yl)methyl)piperazin-1-yl)benzamide], the IC50 was found to be 27.7 nM.

As to `CC(C)c1sccc1C1=C(CN2CCN(c3ccc(C(=O)NS(=O)(=O)c4ccc(NCC5CCOCC5)c([N+](=O)[O-])c4)c(Oc4cnc5[nH]ccc5c4)c3)CC2)CCC(C)(C)C1` [Example 11, 2-((1H-pyrrolo[2,3-b]pyridin-5-yl)oxy)-4-(4-((2-(2-isopropylthiophen-3-yl)-4,4-dimethylcyclohex-1-en-1-yl)-methyl)piperazin-1-yl)-N-((3-nitro-4-(((tetrahydro-2H-pyran-4-yl)methyl)amino)-phenyl)sulfonyl)benzamide], the IC50 came out at 37.6 nM.

With `CC1(C)CCC(CN2CCN(c3ccc(C(=O)NS(=O)(=O)c4ccc(NC[C@H]5COCCO5)c([N+](=O)[O-])c4)c(Oc4cnc5[nH]ccc5c4)c3)CC2)=C(c2cc3c(s2)CCN(c2ccc(F)cc2)C3)C1` [Example 15, (S)—N-((4-(((1,4-dioxan-2-yl)methyl)amino)-3-nitrophenyl)sulfonyl)-2-((1H-pyrrolo[2,3-b]pyridin-5-yl)oxy)-4-(4-((2-(5-(4-fluorophenyl)-4,5,6,7-tetrahydrothieno[3,2-c]pyridin-2-yl)-4,4-dimethylcyclohex-1-en-1-yl)methyl)piperazin-1-yl)benzamide], the IC50 was found to be 65.1 nM.

Turning to `CC1(C)CCC(CN2CCN(c3ccc(C(=O)NS(=O)(=O)c4ccc(NC[C@H]5CC[C@](C)(O)CC5)c([N+](=O)[O-])c4)c(Oc4cnc5[nH]ccc5c4)c3)CC2)=C(c2cc3c(s2)CCN(c2ccc(F)cc2)C3)C1` [Example 16, 2-((1H-pyrrolo[2,3-b]pyridin-5-yl)oxy)-4-(4-((2-(5-(4-fluorophenyl)-4,5,6,7-tetrahydrothieno[3,2-c]pyridin-2-yl)-4,4-dimethylcyclohex-1-en-1-yl)methyl)piperazin-1-yl)-N-((4-((((1r,4r)-4-hydroxy-4-methylcyclohexyl)methyl)amino)-3-nitrophenyl)sulfonyl)benzamide], the IC50 amounted to 94.7 nM.

`CC1(C)CCC(CN2CCN(c3ccc(C(=O)NS(=O)(=O)c4ccc(NC[C@H]5COCCO5)c([N+](=O)[O-])c4)c(Oc4cnc5[nH]ccc5c4)c3)CC2)=C(c2cc(NC(=O)c3ccccc3)cs2)C1` [Example 18, (S)—N-((4-(((1,4-dioxan-2-yl)methyl)amino)-3-nitrophenyl)sulfonyl)-2-((1H-pyrrolo[2,3-b]pyridin-5-yl)oxy)-4-(4-((2-(4-benzamidothiophen-2-yl)-4,4-dimethylcyclohex-1-en-1-yl)methyl)piperazin-1-yl)benzamide]: the IC50 came out at 66.3 nM.

For `CC1(C)CCC(CN2CCN(c3ccc(C(=O)NS(=O)(=O)c4ccc(NC[C@H]5COCCO5)c([N+](=O)[O-])c4)c(Oc4cnc5[nH]ccc5c4)c3)CC2)=C(c2cc(Nc3ncccn3)cs2)C1` [Example 19, (S)—N-((4-(((1,4-dioxan-2-yl)methyl)amino)-3-nitrophenyl)sulfonyl)-2-((1H-pyrrolo[2,3-b]pyridin-5-yl)oxy)-4-(4-((4,4-dimethyl-2-(4-(pyrimidin-2-ylamino)thiophen-2-yl)cyclohex-1-en-1-yl)methyl)piperazin-1-yl)benzamide], the IC50 was determined as 40.9 nM.

As to `CC1(C)CCC(CN2CCN(c3ccc(C(=O)NS(=O)(=O)c4ccc(NCC5CCOCC5)c([N+](=O)[O-])c4)c(Oc4cnc5[nH]ccc5c4)c3)CC2)=C(c2csc(CN3CCOCC3)c2)C1` [Example 21, 2-((1H-pyrrolo[2,3-b]pyridin-5-yl)oxy)-4-(4-((4,4-dimethyl-2-(5-(morpholinomethyl)thiophen-3-yl)cyclohex-1-en-1-yl)methyl)piperazin-1-yl)-N-((3-nitro-4-(((tetrahydro-2H-pyran-4-yl)methyl)amino)phenyl)sulfonyl)benzamide], the IC50 was determined as 64.2 nM.

As to `CC1(C)CCC(CN2CCN(c3ccc(C(=O)NS(=O)(=O)c4ccc(NC[C@H]5COCCO5)c([N+](=O)[O-])c4)c(Oc4cnc5[nH]ccc5c4)c3)CC2)=C(c2cc(CN3CCOCC3)cs2)C1` [Example 22, (S)—N-((4-(((1,4-dioxan-2-yl)methyl)amino)-3-nitrophenyl)sulfonyl)-2-((1H-pyrrolo[2,3-b]pyridin-5-yl)oxy)-4-(4-((4,4-dimethyl-2-(4-(morpholinomethyl)thiophen-2-yl)cyclohex-1-en-1-yl)methyl)piperazin-1-yl)benzamide], the IC50 came out at 42.8 nM.

In the case of `CC1(C)CCC(CN2CCN(c3ccc(C(=O)NS(=O)(=O)c4ccc(NC[C@H]5CC[C@@](C)(O)CC5)c([N+](=O)[O-])c4)c(Oc4cnc5[nH]ccc5c4)c3)CC2)=C(c2cc(CN3CCOCC3)cs2)C1` [Example 23, 2-((1H-pyrrolo[2,3-b]pyridin-5-yl)oxy)-4-(4-((4,4-dimethyl-2-(4-(morpholinomethyl)thiophen-2-yl)cyclohex-1-en-1-yl)methyl)piperazin-1-yl)-N-((4-((((1s,4s)-4-hydroxy-4-methylcyclohexyl)methyl)amino)-3-nitrophenyl)sulfonyl)benzamide], the IC50 amounted to 28.2 nM.

As to `CC1(C)CCC(CN2CCN(c3ccc(C(=O)NS(=O)(=O)c4ccc(NC[C@H]5CC[C@](C)(O)CC5)c([N+](=O)[O-])c4)c(Oc4cnc5[nH]ccc5c4)c3)CC2)=C(c2cc(CN3CCOCC3)cs2)C1` [Example 24, 2-((1H-pyrrolo[2,3-b]pyridin-5-yl)oxy)-4-(4-((4,4-dimethyl-2-(4-(morpholinomethyl)thiophen-2-yl)cyclohex-1-en-1-yl)methyl)piperazin-1-yl)-N-((4-((((1r,4r)-4-hydroxy-4-methylcyclohexyl)methyl)amino)-3-nitrophenyl)sulfonyl)benzamide], the IC50 was 30.1 nM.

For the molecule `CC1(C)CCC(CN2CCN(c3ccc(C(=O)NS(=O)(=O)c4ccc(NCC5CCOCC5)c([N+](=O)[O-])c4)c(Oc4cnc5[nH]ccc5c4)c3)CC2)=C(c2ccsc2CN2CCOCC2)C1` [Example 25, 2-((1H-pyrrolo[2,3-b]pyridin-5-yl)oxy)-4-(4-((4,4-dimethyl-2-(2-(morpholinomethyl)thiophen-3-yl)cyclohex-1-en-1-yl)methyl)piperazin-1-yl)-N-((3-nitro-4-(((tetrahydro-2H-pyran-4-yl)methyl)amino)phenyl)sulfonyl)benzamide], the IC50 stood at 39.1 nM.
